Read-outs that look alike come from different tables or passages of the source. *1 amine or outer side, *2 acyl side, *3 side chain or, on linkers, in order; H or OH if unused. Where a SMILES comes first, the peptide text is derived from it. [ ]: non-standard residue; d: D form. X3 = CC(CC(O[*:1])C(=O)[*:2])C(=O)O; NMeV = CN[CH](C(=O)O)C(C)C; NMeA = CN[CH](C)C(=O)O; βAla = NCCC(=O)O

The values below come from article PMC8765781, “A platform of assays for the discovery of anti-Zika small-molecules with activity in a 3D-bioprinted outer-blood-retina model” (PLoS ONE, 2022).

Experiment [1] deals with ZIKV-RLuc (Cambodian strain FSS13025). Put plainly: microbe, parasite or virus in culture. The note with it: for AC50: Zika virus, Vero. It is filed as cell-based, Zika virus.
For experiment [2], the system named is wild-type ZIKV (Ugandan MR766 strain) in Vero cells. The experiment in a line: ZIKV cytopathic effect (CPE) inhibition qHTS assay, CellTiter-Glo readout. It is filed as cell-based, Zika virus. The note with it: for AC50: Zika virus, Vero. For orientation: Damage to the host cells serves as the signal in cytopathic effect assays.
[3] abbreviates: read-out: Log AC50 (M) (converted).

In the case of `CN1CCN(CCCN2c3ccccc3Sc3ccc(C(F)(F)F)cc32)CC1` [NCGC00013226-15], in experiment [1], the “CC-v2 (curve class classification v2 of the dose response curve)” value was -2.1; the “Efficacy (difference between neutral response and maximum compound response)” value was -93.82; the “Max Resp (difference between neutral response and compound response for highest compound concentration)” value was -95.429; half-maximal activity (AC50) was put at 2.33e-05 M. Besides, the AC50 in experiment [1] (setting [3]) is 2.33e-05 M. In the experiment with Vero cells, the activity was half-maximal at 23.3 µM (AC50) and the “Log AC50 (M)” value is reported as -4.6327 M.

For `CC(C)COCC(CN(Cc1ccccc1)c1ccccc1)N1CCCC1` (stereo not shown) [NCGC00015155-11], in experiment [1], the “CC-v2 (curve class classification v2 of the dose response curve)” value is on record as -2.2; the “Efficacy (difference between neutral response and maximum compound response)” value is -53.208; the “Max Resp (difference between neutral response and compound response for highest compound concentration)” value is -86.237.

As for `COc1cc2nc(N3CCN(C(=O)c4ccco4)CC3)nc(N)c2cc1OC` [NCGC00016740-18], in experiment [1], the “Max Resp (difference between neutral response and compound response for highest compound concentration)” value was -5.44.

As for `CN1CCN(CCCN2c3ccccc3Sc3ccc(S(=O)(=O)N(C)C)cc32)CC1.CS(=O)(=O)O.CS(=O)(=O)O` [NCGC00017040-01], in experiment [1], the “CC-v2 (curve class classification v2 of the dose response curve)” value was determined as 4; the “Efficacy (difference between neutral response and maximum compound response)” value is given as -28.971; the “Max Resp (difference between neutral response and compound response for highest compound concentration)” value is -22.476.

With `CCN(CC)Cc1cc(Nc2ccnc3cc(Cl)ccc23)ccc1O` [NCGC00017063-03], in experiment [1], the “CC-v2 (curve class classification v2 of the dose response curve)” value came to 4; the “Efficacy (difference between neutral response and maximum compound response)” value worked out at 28.757; the “Max Resp (difference between neutral response and compound response for highest compound concentration)” value turned out to be 20.219.

Regarding `CCOc1cc(N)c(Cl)cc1C(=O)NCC1CN(Cc2ccc(F)cc2)CCO1` (stereo not shown) [NCGC00160527-05], in experiment [1], the “CC-v2 (curve class classification v2 of the dose response curve)” value came to 4; the “Efficacy (difference between neutral response and maximum compound response)” value is -16.441; the “Max Resp (difference between neutral response and compound response for highest compound concentration)” value was -14.706.

For `CN1CCC(=C2c3ccccc3CCc3sccc32)CC1` [NCGC00163169-02], in experiment [1], the “CC-v2 (curve class classification v2 of the dose response curve)” value is 4; the “Efficacy (difference between neutral response and maximum compound response)” value came to 14.14; the “Max Resp (difference between neutral response and compound response for highest compound concentration)” value is given as -9.44.

For the molecule `Cc1cccc(C)c1OCC(=O)N[C@@H](Cc1ccccc1)[C@@H](O)C[C@H](Cc1ccccc1)NC(=O)[C@H](C(C)C)N1CCCNC1=O` [NCGC00164576-04], in experiment [1], the “CC-v2 (curve class classification v2 of the dose response curve)” value turned out to be 4; the “Max Resp (difference between neutral response and compound response for highest compound concentration)” value was -20.627.

As for `CCCCCCCCCCC[C@@H](C[C@@H]1OC(=O)[C@H]1CCCCCC)OC(=O)C(CC(C)C)NC=O` (stereo partly shown) [NCGC00165856-03], in experiment [1], the “CC-v2 (curve class classification v2 of the dose response curve)” value is -3; the “Efficacy (difference between neutral response and maximum compound response)” value is recorded as 0; the “Max Resp (difference between neutral response and compound response for highest compound concentration)” value is listed as -33.733.

For the molecule `CC[C@@]1([C@@H]2O[C@@H]([C@H]3O[C@@](O)(CO)[C@H](C)C[C@@H]3C)C[C@@H]2C)CC[C@H]([C@]2(C)CC[C@]3(C[C@H](O)[C@@H](C)[C@@H]([C@@H](C)[C@@H](OC)[C@H](C)C(=O)O)O3)O2)O1` [NCGC00179454-04], in experiment [1], the “CC-v2 (curve class classification v2 of the dose response curve)” value is on record as 4; the “Efficacy (difference between neutral response and maximum compound response)” value came to 29.905; the “Max Resp (difference between neutral response and compound response for highest compound concentration)” value was -20.473.

In the case of `CC1(C)C=Cc2c(ccc(C(=O)/C=C/c3ccccc3)c2O)O1` [NCGC00187466-03], in experiment [1], the “CC-v2 (curve class classification v2 of the dose response curve)” value was 4; the “Max Resp (difference between neutral response and compound response for highest compound concentration)” value is -35.49.

As for `CC[C@@H]1C(=O)N(C)c2cnc(Nc3ccc(C(=O)NC4CCC(N5CCN(CC6CC6)CC5)CC4)cc3OC)nc2N1C(C)C` (stereo partly shown) [NCGC00263087-01], in experiment [1], the “CC-v2 (curve class classification v2 of the dose response curve)” value turned out to be 4; the “Efficacy (difference between neutral response and maximum compound response)” value came out at 12.227; the “Max Resp (difference between neutral response and compound response for highest compound concentration)” value came out at 10.387.

In the case of `CC(C)(N)C(=O)N[C@H](COCc1ccccc1)C(=O)N1CCC2(CC1)CN([S+](C)(=O)[O-])c1ccccc12` [NCGC00263115-01], in experiment [1], the “CC-v2 (curve class classification v2 of the dose response curve)” value was 4; the “Efficacy (difference between neutral response and maximum compound response)” value is recorded as -25.4; the “Max Resp (difference between neutral response and compound response for highest compound concentration)” value is recorded as -0.591.

On to `CCCCc1ccc(N[S+](=O)([O-])c2ccc(C)c(C(=O)N3CCN(c4cccc(C)c4C)CC3)c2)cc1` [NCGC00263234-01], for which, in experiment [1], the “CC-v2 (curve class classification v2 of the dose response curve)” value is reported as -3; the “Efficacy (difference between neutral response and maximum compound response)” value is recorded as -38.307; the “Max Resp (difference between neutral response and compound response for highest compound concentration)” value is given as -30.256; the AC50 is 7.59e-05 M. Besides, the AC50 in experiment [1] (setting [3]) was 7.59e-05 M.

With `COc1ccc(/C=C/C(=O)/C=C/c2ccc(OC)cc2)cc1` [NCGC00336197-02], in experiment [1], the “CC-v2 (curve class classification v2 of the dose response curve)” value is on record as 3; the “Efficacy (difference between neutral response and maximum compound response)” value is 41.267; the “Max Resp (difference between neutral response and compound response for highest compound concentration)” value was 6.905.

As for `CCc1ccc(C(=O)Nc2cc(CN3CCN(C)CC3)cc(C(F)(F)F)c2)cc1C#Cc1cnc2ccnn2c1` [NCGC00347217-02], in experiment [1], the “CC-v2 (curve class classification v2 of the dose response curve)” value was -3; the “Efficacy (difference between neutral response and maximum compound response)” value was -116.826; the “Max Resp (difference between neutral response and compound response for highest compound concentration)” value is listed as -100.407.

Regarding `CN(C)c1cccc(-c2c3c(=O)n(-c4ccccc4Cl)[nH]c3cc(=O)n2C)c1` [NCGC00378460-01], in experiment [1], the “CC-v2 (curve class classification v2 of the dose response curve)” value worked out at 4; the “Efficacy (difference between neutral response and maximum compound response)” value came to 10.267; the “Max Resp (difference between neutral response and compound response for highest compound concentration)” value came out at 14.909.

As to `CCC(C)C1NC(=O)C2CCCN2C(=O)C(CC(C)C(=O)O)OC(=O)CCNC(=O)C(C)N(C)C(=O)C(C(C)C)N(C)C1=O` (stereo not shown) [NCGC00380598-01] (cyclo([X3]PI[NMeV][NMeA][βAla]); configuration not given here), in experiment [1], the “CC-v2 (curve class classification v2 of the dose response curve)” value was 4; the “Efficacy (difference between neutral response and maximum compound response)” value is listed as -20.973; the “Max Resp (difference between neutral response and compound response for highest compound concentration)” value is reported as -24.561.

As for `CC1OC(OC2C(c3c(O)cc(OC4OC(CO)C(O)C(O)C4O)c4c(=O)cc(-c5ccc(O)cc5)oc34)OC(CO)C(O)C2O)C(O)C(O)C1O` (stereo not shown) [NCGC00384535-01], in experiment [1], the “CC-v2 (curve class classification v2 of the dose response curve)” value came to 4; the “Max Resp (difference between neutral response and compound response for highest compound concentration)” value is reported as -6.059.

Consider `COc1c(O)c(C(=O)/C=C/c2ccccc2)c(OC)c(OC)c1OC` [NCGC00384644-01], for which, in experiment [1], the “CC-v2 (curve class classification v2 of the dose response curve)” value came out at 4; the “Max Resp (difference between neutral response and compound response for highest compound concentration)” value is on record as -2.089.

Consider `CC1OC(OC2C(O)COC(O[C@@H]3[C@@H](O)[C@@H](O)[C@H](OC4C(OC(=O)[C@]56CCC(C)(C)CC5C5=CCC7[C@@]8(C)C[C@H](O)[C@H](OC9OC(CO)C(O)C(O)C9O)[C@@](C)(CO)C8[C@H](O)C[C@@]7(C)[C@]5(C)CC6)OCC(O)C4O)O[C@H]3C)C2O)C(O)C(O)C1O` (stereo partly shown) [NCGC00385323-01], for which, in experiment [1], the “CC-v2 (curve class classification v2 of the dose response curve)” value is on record as -3; the “Max Resp (difference between neutral response and compound response for highest compound concentration)” value is -39.964.

Take `CC(=O)O[C@H]1C[C@@H]2[C@]3(CC[C@]4(C)[C@@H](C5(C)CCC(C(C)(C)O)O5)[C@@H](O)C[C@@]24C)C[C@@]32CC[C@H](O[C@@H]3OC[C@@H](O)[C@H](O)[C@H]3O)C(C)(C)[C@H]12` (stereo partly shown) [NCGC00385494-01]: in experiment [1], the “CC-v2 (curve class classification v2 of the dose response curve)” value is reported as 4; the “Efficacy (difference between neutral response and maximum compound response)” value was 27.089; the “Max Resp (difference between neutral response and compound response for highest compound concentration)” value is reported as -22.612.

As for `CCC(C)C(O)C(=O)OC1CC2C(C)(C)C(OC(C)=O)CC(OC(C)=O)C2(C)C2CC(OC(C)=O)C3(C)C(=CCC3c3ccoc3)C12C` (stereo not shown) [NCGC00385571-01], in experiment [1], the “CC-v2 (curve class classification v2 of the dose response curve)” value is -3; the “Efficacy (difference between neutral response and maximum compound response)” value came to 0; the “Max Resp (difference between neutral response and compound response for highest compound concentration)” value is recorded as -47.611.

Regarding `CC1=CC(=O)C(=C(C)C)CC2C(C)(O)CCC12O` (stereo not shown) [NCGC00385849-01], in experiment [1], the “CC-v2 (curve class classification v2 of the dose response curve)” value was -1.2; the “Efficacy (difference between neutral response and maximum compound response)” value is -35.641; the “Max Resp (difference between neutral response and compound response for highest compound concentration)” value is on record as -12.132.

On to `COC(=O)C1=C(C)NC(C)=C(C(=O)OC)C1c1cccc(NC(=O)NCCCN2CCC(c3cccc(OC)c3)CC2)c1` [NCGC00485144-01], for which, in experiment [2], the Efficacy is given as -27.731 and the activity was half-maximal at 7.31e-05 M (AC50). Moreover, the AC50 in experiment [2] (setting [3]) is 7.31e-05 M.

With `C[C@H]1CCC[C@H](O)CCC/C=C/c2cc(O)cc(O)c2C(=O)O1` [NCGC00485224-01], in experiment [2], the “CC-v2 (curve class classification of the dose response curve)” value was -3, the Efficacy was -58.539 and the activity was half-maximal at 6.51e-05 M (AC50). The half-maximal activity concentration (AC50) in experiment [2] (setting [3]) was 6.51e-05 M.

With `C[C@@]1(O)[C@H](O)[C@@H](CO)O[C@H]1n1cnc2c(=O)[nH]c(N)nc21` [NCGC00485409-01], in experiment [2], the Efficacy is on record as -27.977 and the AC50 was determined as 3.66e-05 M. Moreover, the AC50 in experiment [2] (setting [3]) was 3.66e-05 M.

Consider `O=C(O)c1ccc2c(c1)nc(Nc1cccc(Cl)c1)c1ccncc12` [NCGC00485907-01], for which the Efficacy in experiment [2] is given as -41.903. Moreover, the AC50 in experiment [2] and in experiment [2] (setting [3]) was 6.51e-05 M in each case.

As for `C/C(=N\NC(=N)N)c1cc(NC(=O)CCCCCCCCC(=O)Nc2cc(/C(C)=N/NC(=N)N)cc(/C(C)=N/NC(=N)N)c2)cc(/C(C)=N/NC(=N)N)c1` [NCGC00487056-01], in experiment [2], the “CC-v2 (curve class classification of the dose response curve)” value is on record as -2.2, the Efficacy is reported as -56.895 and the activity was half-maximal at 5.8e-05 M (AC50). In addition, the AC50 in experiment [2] (setting [3]) is 5.8e-05 M.

As usually defined, the AC50 is the concentration at which the activity in the assay is half-maximal.
